Laboratory results reported in patent US20060229433A1, “Modified antiviral peptides with increased activity and cell membrane affinity” (priority 2003, published 2006).
Where “and” joins values, the source holds several entries; their conditions need not be identical. Equal entries are not always repeated. Square brackets hold non-standard residues; d marks the D form. Peptide text beside a SMILES is read from it. Ava = NCCCCC(=O)O

Legend:
Format in all cases: cell-based
HIV-1 NDK = test: HIV-1 infection of C8166 cells (syncytia formation, p24 ELISA) with HIV-1 NDK; design: key to syncitia formed, Day 4 / syncitia formed, Day 5 / syncitia formed, Day 6 / syncitia formed, Day 7: ++, +, (+), (+)− and − represent decreasing numbers of syncitia formed; ++, +, (+), (+)− and − represent decreasing numbers of syncitia formed; ++, +, (+), (+)− and − represent decreasing numbers of syncitia formed; ++, +, (+), (+)− and − represent decreasing numbers of syncitia formed; ++, +, (+), (+)− and − represent decreasing numbers of syncitia formed; conditions: for P 24: P 24 after Day 7
Procedure: HIV-1 NL 4-3 isolate (Adachi et al., 1986; Barré-Sinoussi et al., 1983) and highly cytopathic Zairian HIV-1 NDK isolate (Ellrodt et al., 1984) was propagated in permissive CEM cells (Nara et al., 1987). Uninfected CEM and C8166 (Salahuddin et al., 1983) were maintained in RPMI 1640 (R10) with ultraglutamine (cambrex, Vervier, Belgium), penicillin (100 U/ml), streptomycin (100 μg/ml), and 10% heat-inactivated fetal calf serum (Cambrex).
Samples of 3×10^5/100 μL C8166 cells were preincubated in 96-well microtiter plates in culture medium containing various concentrations of peptide. After a 1 h treatment at 37° C., 100 μl of diluted viral solution of HIV-1 was added. The cells were exposed to the virus for 1 h at 37° C. at a multiplicity of infection of 1000 TCID50 per ml. The cells were washed three times and cultured at 3×10^5/ml of R10 with the treatment in 24-well plates incubated at 37° C. C8166 culture medium was replaced at Day-4 post-infection. The treatment was permanent before virus adsorption, during virus adsorption and after infection. Assays on C8166 cells have been performed at least twice and in duplicate. Toxicity was evaluated by daily cell count and trypan-blue exclusion assay. Infection of C8166 T-cells with HIV-1 was assessed by virus-induced cytopathic effects (syncytia formation) and by quantification of cell free p24 viral protein in the culture supernatants. Measurements of HIV-1 p24^gag concentration in the culture supernatants were achieved by ELISA (ALLIANCE® HIV-1 p24 kit, Perkin Elmer, life sciences, USA).

HIV-1 NL 4-3 [1] = test: HIV-1 infection of C8166 cells (syncytia formation, p24 ELISA) with HIV-1 NL 4-3; design: key to syncitia formed, Day 4 / syncitia formed, Day 5 / syncitia formed, Day 6 / syncitia formed, Day 7: ++, +, (+), (+)− and − represent decreasing numbers of syncitia formed; ++, +, (+), (+)− and − represent decreasing numbers of syncitia formed; ++, +, (+), (+)− and − represent decreasing numbers of syncitia formed; ++, +, (+), (+)− and − represent decreasing numbers of syncitia formed; ++, +, (+), (+)− and − represent decreasing numbers of syncitia formed
Outline: (§1)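 C8166 T-cells were preincubated with peptide for 1 h at 37 °C, then exposed for 1 h to HIV-1 at 1000 TCID50/ml, washed, and cultured with peptide kept present throughout, with medium replaced at day 4. Infection was scored by syncytia formation and by supernatant p24 ELISA, with at least two runs in duplicate.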

HIV-1 NL 4-3 [2] = test: as above; design: key: ++, +, (+), (+)− and − represent decreasing numbers of syncitia formed; ++, +, (+), (+)− and − represent decreasing numbers of syncitia formed; ++, +, (+), (+)− and − represent decreasing numbers of syncitia formed; ++, +, (+), (+)− and − represent decreasing numbers of syncitia formed; ++, +, (+), (+)− and − represent decreasing numbers of syncitia formed; conditions: Table 6
Outline: as §1

N=C(N)NCCC[C@H](NC(=O)CNC(=O)[C@@H]1CCCN1C(=O)CN)C(=O)NCCCCC(=O)O [GPGR valeric acid, GPGR-NHCH2CH2CH2CH2COOH] (H-GPGR[Ava]-OH; N-terminus assumed)
syncitia formed, Day 4 (HIV-1 NDK; 0.005 μM): (+)
syncitia formed, Day 5 (HIV-1 NDK; 0.005 μM): +
syncitia formed, Day 6 (HIV-1 NDK; 0.005 μM): ++
syncitia formed, Day 7 (HIV-1 NDK; 0.005 μM): ++
P 24 (HIV-1 NDK; 0.005 μM): 23810 pg/mL
syncitia formed, Day 4 (HIV-1 NDK; 0.01 μM): (+)
syncitia formed, Day 5 (HIV-1 NDK; 0.01 μM): +
syncitia formed, Day 6 (HIV-1 NDK; 0.01 μM): ++
syncitia formed, Day 7 (HIV-1 NDK; 0.01 μM): ++
P 24 (HIV-1 NDK; 0.01 μM): 23810 pg/mL
syncitia formed, Day 4 (HIV-1 NDK; 0.05 μM): −
syncitia formed, Day 5 (HIV-1 NDK; 0.05 μM): (+)
syncitia formed, Day 6 (HIV-1 NDK; 0.05 μM): ++
syncitia formed, Day 7 (HIV-1 NDK; 0.05 μM): ++
P 24 (HIV-1 NDK; 0.05 μM): 23810 pg/mL
syncitia formed, Day 4 (HIV-1 NDK; 0.1 μM): −
syncitia formed, Day 5 (HIV-1 NDK; 0.1 μM): (+)
syncitia formed, Day 6 (HIV-1 NDK; 0.1 μM): ++
syncitia formed, Day 7 (HIV-1 NDK; 0.1 μM): ++
P 24 (HIV-1 NDK; 0.1 μM): 17890 pg/mL and 23810 pg/mL
syncitia formed, Day 4 (HIV-1 NDK; 0.5 μM): −
syncitia formed, Day 5 (HIV-1 NDK; 0.5 μM): −
syncitia formed, Day 6 (HIV-1 NDK; 0.5 μM): +
syncitia formed, Day 7 (HIV-1 NDK; 0.5 μM): ++
syncitia formed, Day 4 (HIV-1 NDK; 1 μM): −
syncitia formed, Day 5 (HIV-1 NDK; 1 μM): −
syncitia formed, Day 6 (HIV-1 NDK; 1 μM): +
syncitia formed, Day 7 (HIV-1 NDK; 1 μM): ++
P 24 (HIV-1 NDK; 1 μM): 2840 pg/mL and 3810 pg/mL
syncitia formed, Day 4 (HIV-1 NDK; 5 μM): −
syncitia formed, Day 5 (HIV-1 NDK; 5 μM): −
syncitia formed, Day 6 (HIV-1 NDK; 5 μM): (+)
syncitia formed, Day 7 (HIV-1 NDK; 5 μM): +
P 24 (HIV-1 NDK; 5 μM): 3810 pg/mL
IC50 (HIV-1 NDK; HIV 1 NDK, Table 10): 0.3 µM
IC100 (HIV-1 NDK; HIV 1 NDK, Table 10): >5 µM
syncitia formed, Day 4 (HIV-1 NL 4-3 [1]; 0.01 μM, C8166 cells): −
syncitia formed, Day 5 (HIV-1 NL 4-3 [1]; 0.01 μM, C8166 cells): +
syncitia formed, Day 6 (HIV-1 NL 4-3 [1]; 0.01 μM, C8166 cells): ++
syncitia formed, Day 7 (HIV-1 NL 4-3 [1]; 0.01 μM, Day 7, C8166 cells): ++/T and ++
syncitia formed, Day 4 (HIV-1 NL 4-3 [1]; 0.05 μM, C8166 cells): −
syncitia formed, Day 5 (HIV-1 NL 4-3 [1]; 0.05 μM, C8166 cells): (+)
syncitia formed, Day 6 (HIV-1 NL 4-3 [1]; 0.05 μM, C8166 cells): +
syncitia formed, Day 7 (HIV-1 NL 4-3 [1]; 0.05 μM, Day 7, C8166 cells): ++
P 24 (HIV-1 NL 4-3 [1]; 0.05 μM, P 24 after Day 7, C8166 cells): 9860 pg/mL and 17800 pg/mL
syncitia formed, Day 4 (HIV-1 NL 4-3 [1]; 0.1 μM, C8166 cells): −
syncitia formed, Day 5 (HIV-1 NL 4-3 [1]; 0.1 μM, C8166 cells): (+)
syncitia formed, Day 6 (HIV-1 NL 4-3 [1]; 0.1 μM, C8166 cells): +
syncitia formed, Day 7 (HIV-1 NL 4-3 [1]; 0.1 μM, Day 7, C8166 cells): +
syncitia formed, Day 4 (HIV-1 NL 4-3 [1]; 0.5 μM, C8166 cells): −
syncitia formed, Day 5 (HIV-1 NL 4-3 [1]; 0.5 μM, C8166 cells): −
syncitia formed, Day 6 (HIV-1 NL 4-3 [1]; 0.5 μM, C8166 cells): −
syncitia formed, Day 7 (HIV-1 NL 4-3 [1]; 0.5 μM, Day 7, C8166 cells): +
P 24 (HIV-1 NL 4-3 [1]; 0.5 μM, P 24 after Day 7, C8166 cells): 2740 pg/mL and 2840 pg/mL
syncitia formed, Day 4 (HIV-1 NL 4-3 [1]; 1 μM, C8166 cells): −
syncitia formed, Day 5 (HIV-1 NL 4-3 [1]; 1 μM, C8166 cells): −
syncitia formed, Day 6 (HIV-1 NL 4-3 [1]; 1 μM, C8166 cells): −
syncitia formed, Day 7 (HIV-1 NL 4-3 [1]; 1 μM, Day 7, C8166 cells): −
P 24 (HIV-1 NL 4-3 [1]; 1 μM, P 24 after Day 7, C8166 cells): 53 pg/mL and 64 pg/mL
syncitia formed, Day 4 (HIV-1 NL 4-3 [1]; 5 μM, C8166 cells): −
syncitia formed, Day 5 (HIV-1 NL 4-3 [1]; 5 μM, C8166 cells): −
syncitia formed, Day 6 (HIV-1 NL 4-3 [1]; 5 μM, C8166 cells): −
syncitia formed, Day 7 (HIV-1 NL 4-3 [1]; 5 μM, Day 7, C8166 cells): −
P 24 (HIV-1 NL 4-3 [1]; 5 μM, P 24 after Day 7, C8166 cells): 2 pg/mL
P 24 (HIV-1 NL 4-3 [1]; Day 7, 0.005 μM, Table 6): 23810 pg/mL
P 24 (HIV-1 NL 4-3 [1]; Day 7, 0.01 μM, Table 6): 21800 pg/mL and 23810 pg/mL
P 24 (HIV-1 NL 4-3 [1]; Day 7, 0.05 μM, Table 6): 9840 pg/mL and 11830 pg/mL
P 24 (HIV-1 NL 4-3 [1]; Day 7, 0.1 μM, Table 6): 433 pg/mL and 507 pg/mL
P 24 (HIV-1 NL 4-3 [1]; Day 7, 1 μM, Table 6): 104 pg/mL and 179 pg/mL
P 24 (HIV-1 NL 4-3 [1]; Day 7, 5 μM, Table 6): 2.36 pg/mL and 2.4 pg/mL
Day 4 syncitia formed (HIV-1 NL 4-3 [2]; 0.005 μM): −
Day 5 syncitia formed (HIV-1 NL 4-3 [2]; 0.005 μM): +
Day 6 syncitia formed (HIV-1 NL 4-3 [2]; 0.005 μM): ++
Day 7 syncitia formed (HIV-1 NL 4-3 [2]; 0.005 μM): ++
Day 4 syncitia formed (HIV-1 NL 4-3 [2]; 0.01 μM): −
Day 5 syncitia formed (HIV-1 NL 4-3 [2]; 0.01 μM): +
Day 6 syncitia formed (HIV-1 NL 4-3 [2]; 0.01 μM): ++
Day 7 syncitia formed (HIV-1 NL 4-3 [2]; 0.01 μM): ++
Day 4 syncitia formed (HIV-1 NL 4-3 [2]; 0.05 μM): −
Day 5 syncitia formed (HIV-1 NL 4-3 [2]; 0.05 μM): (+)
Day 6 syncitia formed (HIV-1 NL 4-3 [2]; 0.05 μM): +
Day 7 syncitia formed (HIV-1 NL 4-3 [2]; 0.05 μM): ++
Day 4 syncitia formed (HIV-1 NL 4-3 [2]; 0.1 μM): −
Day 5 syncitia formed (HIV-1 NL 4-3 [2]; 0.1 μM): (+)
Day 6 syncitia formed (HIV-1 NL 4-3 [2]; 0.1 μM): +
Day 7 syncitia formed (HIV-1 NL 4-3 [2]; 0.1 μM): +
Day 4 syncitia formed (HIV-1 NL 4-3 [2]; 0.5 μM): −
Day 5 syncitia formed (HIV-1 NL 4-3 [2]; 0.5 μM): −
Day 6 syncitia formed (HIV-1 NL 4-3 [2]; 0.5 μM): −
Day 7 syncitia formed (HIV-1 NL 4-3 [2]; 0.5 μM): +
Day 4 syncitia formed (HIV-1 NL 4-3 [2]; 1 μM): −
Day 5 syncitia formed (HIV-1 NL 4-3 [2]; 1 μM): −
Day 6 syncitia formed (HIV-1 NL 4-3 [2]; 1 μM): −
Day 7 syncitia formed (HIV-1 NL 4-3 [2]; 1 μM): +
Day 4 syncitia formed (HIV-1 NL 4-3 [2]; 5 μM): −
Day 5 syncitia formed (HIV-1 NL 4-3 [2]; 5 μM): −
Day 6 syncitia formed (HIV-1 NL 4-3 [2]; 5 μM): −
Day 7 syncitia formed (HIV-1 NL 4-3 [2]; 5 μM): −
